Our source for the Ratio ED50 and EC50 values is ChEMBL document CHEMBL1149393, “Single-site chemical modification at C10 of the baccatin III core of paclitaxel and Taxol C reduces P-glycoprotein interactions in bovine brain microvessel endothelial cells” (Bioorg Med Chem Lett, 2006).

The target in assay [1] is T1, Tubulin (Homo sapiens) (UniProt P68371+Q9H4B7+P0DPH7+P68366+Q13509+Q71U36+P04350+Q3ZCM7+P07437+P68363+Q9BQE3+Q6PEY2+Q13885+Q9BVA1+Q9BUF5). Put plainly: Cytotoxicity against human breast cancer MCF7 cell line relative to paclitaxel. Type of assay: functional, cell-based.
For assay [2], the target named is T1, Tubulin (Homo sapiens). Put plainly: Activity in tubulin assembly assay relative to paclitaxel. Type of assay: functional.
Assay [3] addresses T1, Tubulin (Homo sapiens). Description: Cytotoxicity against multidrug resistant breast cancer MCF7/ADR cell line relative to paclitaxel. Conditions: NCI/ADR-RES. It is filed as functional, cell-based.
In assay [4] the test system is MCF7. Description: Cytotoxicity against human breast cancer MCF7 cell line. It is filed as functional. The following applies: read-out: ED50 (the source's name).
In assay [5] the test system is NCI/ADR-RES. Put plainly: Cytotoxicity against multidrug resistant breast cancer MCF7/ADR cell line. Type of assay: functional. Conditions: Homo sapiens, read-out: ED50 (the source's name).

Structures are written as SMILES.

In the case of `CCCCCC(=O)N[C@@H](c1ccccc1)[C@@H](O)C(=O)O[C@H]1C[C@@]2(O)[C@@H](OC(=O)c3ccccc3)[C@@H]3[C@]4(OC(C)=O)CO[C@@H]4C[C@H](O)[C@@]3(C)C(=O)[C@H](OC(C)=O)C(=C1C)C2(C)C`, the Ratio ED50 in assay [1] is 2.2; in assay [2], 2; in assay [3] it was 0.48.
For `CCCCCC(=O)N[C@@H](c1ccccc1)[C@@H](O)C(=O)O[C@H]1C[C@@]2(O)[C@@H](OC(=O)c3ccccc3)[C@@H]3[C@]4(OC(C)=O)CO[C@@H]4C[C@H](O)[C@@]3(C)C(=O)[C@H](O)C(=C1C)C2(C)C` the same measures were 4.8, 2.2 and 3.8.
Consider `CC(=O)O[C@H]1C(=O)[C@@]2(C)[C@H]([C@H](OC(=O)c3ccccc3)[C@]3(O)C[C@H](OC(=O)[C@H](O)[C@@H](NC(=O)c4ccccc4)c4ccccc4)C(C)=C1C3(C)C)[C@]1(OC(C)=O)CO[C@@H]1C[C@@H]2O` [PACLITAXEL], for which the EC50 in assay [4] is 3.23 nM; in assay [5], 1.53 nM. The Ratio ED50 in assay [2] is 1.
`CCCCCC(=O)N[C@@H](c1ccccc1)[C@@H](O)C(=O)O[C@H]1C[C@@]2(O)[C@@H](OC(=O)c3ccccc3)[C@@H]3[C@]4(OC(C)=O)CO[C@@H]4C[C@H](O)[C@@]3(C)C(=O)[C@@H](OC(=O)CC)C(=C1C)C2(C)C`: the Ratio ED50 was determined as 3.8 in assay [1], 2.1 in assay [2] and 2.9 in assay [3].
Consider `CC(=O)O[C@@]12CO[C@@H]1C[C@H](O)[C@@]1(C)C(=O)[C@@H](O)C3=C(C)[C@@H](OC(=O)[C@H](O)[C@@H](NC(=O)c4ccccc4)c4ccccc4)C[C@@](O)([C@@H](OC(=O)c4ccccc4)[C@H]21)C3(C)C`, for which the Ratio ED50 was 1.4 in assay [1], 3.2 in assay [2] and 0.7 in assay [3].
On the same counts, the results for `CC(=O)O[C@@H]1C(=O)[C@@]2(C)[C@H]([C@H](OC(=O)c3ccccc3)[C@]3(O)C[C@H](OC(=O)[C@H](O)[C@@H](NC(=O)c4ccccc4)c4ccccc4)C(C)=C1C3(C)C)[C@]1(OC(C)=O)CO[C@@H]1C[C@@H]2O` are 0.7, 0.8 and 1.3.
Take `CCCCCC(=O)N[C@@H](c1ccccc1)[C@@H](O)C(=O)O[C@H]1C[C@@]2(O)[C@@H](OC(=O)c3ccccc3)[C@@H]3[C@]4(OC(C)=O)CO[C@@H]4C[C@H](O)[C@@]3(C)C(=O)[C@@H](OC(C)=O)C(=C1C)C2(C)C`: the Ratio ED50 is 3.2 in assay [1], 0.21 in assay [2] and 1.6 in assay [3].
On the same counts, the results for `CCC(=O)O[C@@H]1C(=O)[C@@]2(C)[C@H]([C@H](OC(=O)c3ccccc3)[C@]3(O)C[C@H](OC(=O)[C@H](O)[C@@H](NC(=O)c4ccccc4)c4ccccc4)C(C)=C1C3(C)C)[C@]1(OC(C)=O)CO[C@@H]1C[C@@H]2O` are 2.6, 4.1 and 1.1.
In the case of `CC(=O)O[C@@]12CO[C@@H]1C[C@H](O)[C@@]1(C)C(=O)[C@H](O)C3=C(C)[C@@H](OC(=O)[C@H](O)[C@@H](NC(=O)c4ccccc4)c4ccccc4)C[C@@](O)([C@@H](OC(=O)c4ccccc4)[C@H]21)C3(C)C`, the Ratio ED50 in assay [1] is 7.5; in assay [2], 2.1; in assay [3] it was 6.6.
In the case of `CCCCCC(=O)N[C@@H](c1ccccc1)[C@@H](O)C(=O)O[C@H]1C[C@@]2(O)[C@@H](OC(=O)c3ccccc3)[C@@H]3[C@]4(OC(C)=O)CO[C@@H]4C[C@H](O)[C@@]3(C)C(=O)[C@@H](O)C(=C1C)C2(C)C`, the Ratio ED50 in assay [1] stood at 9.2; in assay [2], 1.6; in assay [3], 3.1.
